From US20180110795A1, “COMPOSITIONS AND METHODS FOR DETECTING AND TREATING PERIODONTAL DISEASE” (THE FORSYTH INSTITUTE, priority 2015, published 2018)

Tests used:
Type in all cases: cell-based
[1] = tested on: oral plaque; test: Plaque bacteria plated on blood agar and cultured with or without TPP; settings: plaque bacteria from four human subjects on blood agar, various concentrations of TPP
Protocol: Dental plaque is a biofilm that builds up on teeth and contains bacteria associated with cavities, gingivitis, and periodontitis. Plaque samples were obtained from four human subjects. Plaque bacteria from each subject was plated on blood agar and cultured in the presence or absence of various concentrations of Sodium tripolyphospate (TPP), which inhibits Cob(I)alamin adenosyltransferase.

[2] = tested on: oral microbial community; test: Principal component analysis of active community composition by 16S rRNA genes from cultures of plaque; settings: cultures of plaque from a human subject, samples at 0, 3, 9 and 18 hours, all concentrations
Protocol: Principal component analysis was used to analyze changes in oral microbial community composition. Results of an analysis of the active community composition isolated from a human subject was carried out by analysis of 16S rRNA genes from cultures of plaque. The panel of species identified included 500 different species. Samples from the culture were taken at 0, 3, 9 and 18 hours.

[3] = tested on: Rothia dentocariosa; test: Active fraction of microbes by rRNA analysis in liquid culture of oral plaque; settings: TPP at concentrations as low as 25 mM
Source text: (§1) Oral plaque containing Streptococcus sanguinis was obtained from a human subject and cultured in liquid culture in the presence or absence of TPP. S. sanguinis is a gram positive bacteria that binds to the surface if the teeth, where it acts as a tether for the attachment of other bacteria that form dental plaque, and contributes to the development of caries and periodontal disease. S. Sangunis has all of the genes required for anaerobic cobalamin biosynthesis.
(§2) Microbes exist in a range of metabolic states (e.g., dormant, active and growing) and analysis of ribosomal RNA (rRNA) is frequently employed to identify the ‘active’ fraction of microbes in samples. […] This is of particular interest given that other bacterial species may utilize and or depend on the cobalamin synthesized by S. Sanguinis, thus making this species a keystone esential to maintain a mature biofilm.

[4] = tested on: S. Genus probe 1; test: as above; settings: TPP at concentrations as low as 25 mM
Source text: as §1, §2

[5] = tested on: S. intermedius; test: as above; settings: TPP at concentrations as low as 25 mM
Source text: as §1, §2

[6] = tested on: Solobacterium moorei; test: as above; settings: TPP at concentrations as low as 25 mM
Source text: as §1, §2

[7] = tested on: Streptococcus sanguinis; test: as above; settings: three hours of incubation
Source text: as §1, §2

O=P(O)(O)OP(=O)(O)OP(=O)(O)O [TPP, sodium tripolyphosphate]
oral plaque growth [1]: completely inhibited oral plaque growth in a dose dependent manner
change in composition of bacterial communities [2]: affected all of the bacterial communities in similar ways at all concentrations
activity of Rothia dentocariosa [3]: significantly reduced
activity of S. Genus probe 1 [4]: significantly reduced
activity of S. intermedius [5]: significantly reduced
activity of Solobacterium moorei [6]: significantly reduced
fraction of active S. Sanguinis vs control with no TPP ([7]; 25 mM TPP): significantly lower
fraction of active S. Sanguinis vs control with no TPP ([7]; 50 mM TPP): significantly lower
